Source: patent US6355799B1, “Substituted benzene compounds, process for their preparation, and herbicidal and defoliant compositions containing them” (ISK Americas Incorporated, priority 1997, dated 2002)

How the values were obtained:
Format in all cases: in vivo
[1] = system: redroot pigweed (Amaranthus retroflexus, AMARE); assay: Pre-emerge test, greenhouse herbicide activity screening; conditions: rated 14 days after application, 0 = no damage, 100 = complete death
Method in brief: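 Compounds in acetone were track-sprayed at 15-1000 g ai/ha (187 l/ha) on sandy loam pots: pre-emerge one day after seeding, post-emerge at 2-3 leaf stage with 0.25% v/v non-ionic surfactant. Phytotoxicity was rated 14 days later on a 0 (no damage) to 100 (complete death) scale.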

[2] = system: upland rice (Oryza sp., var. Tebonnet, RICE); assay: Pre-emerge test, crop safety; conditions: rated 14 days after application, 0 = no damage, 100 = complete death
Method in brief: (§1)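 Compounds in acetone were track-sprayed at 187 l/ha, 15–1000 g ai/ha, onto sandy loam pots. Pre-emerge seeds were sown one day before spraying, with surface watering afterwards. Post-emerge plants were at the 2–3 leaf stage and sprayed with 0.25% v/v non-ionic surfactant. Injury was rated 0–100 at 14 days.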

[3] = system: field corn (Zea mays L., var. Dekalb 535, CORN); assay: Pre-emerge test, crop safety; conditions: rated 14 days after application, 0 = no damage, 100 = complete death
Method in brief: as §1

[4] = system: ivyleaf morningglory (Ipomoea hederacea, IPOHE); assay: Pre-emerge test, greenhouse herbicide activity screening; conditions: rated 14 days after application, 0 = no damage, 100 = complete death
Method in brief: (§2)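 Plants grown in 10 cm pots of sandy loam mix received acetone-dissolved compounds through a moving flat-fan nozzle. Doses ranged from 15 to 1000 g ai/ha. Pre-emerge pots were seeded one day earlier, post-emerge pots 8–21 days earlier. Fourteen days on, each pot was graded 0–100 for damage.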

[5] = system: green foxtail (Setaria viridis, SETVI); assay: as above; conditions: rated 14 days after application, 0 = no damage, 100 = complete death
Method in brief: as §2

[6] = system: lambsquarters (Chenopodium album, CHEAL); assay: as above; conditions: rated 14 days after application, 0 = no damage, 100 = complete death
Method in brief: as §2

[7] = system: sicklepod (Cassia obtusifolia, CASOB); assay: as above; conditions: rated 14 days after application, 0 = no damage, 100 = complete death
Method in brief: as §2

[8] = system: johnsongrass (Sorghum halepense, SORHA); assay: as above; conditions: rated 14 days after application, 0 = no damage, 100 = complete death
Method in brief: as §2

[9] = system: large crabgrass (Digitaria sanguinalis, DIGSA); assay: as above; conditions: rated 14 days after application, 0 = no damage, 100 = complete death
Method in brief: as §2

[10] = system: barnyardgrass (Echinochloa crus-galli, ECHCG); assay: as above; conditions: rated 14 days after application, 0 = no damage, 100 = complete death
Method in brief: as §2

[11] = system: velvetleaf (Abutilon theophrasti, ABUTH); assay: as above; conditions: rated 14 days after application, 0 = no damage, 100 = complete death
Method in brief: as §2

[12] = system: ivyleaf morningglory (Ipomoea hederacea, IPOHE); assay: Post-emerge test, greenhouse herbicide activity screening; conditions: post-emerge, 14 days after application, rating scale 0-100
Method in brief: (§3)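 Sandy loam pots; pre-emerge: sown 1 d pre-spray, surface-watered after, then bottom-watered. Post-emerge: sown 8–21 d before, 2–3 leaf stage, + 0.25% v/v NIS, bottom-watered. Acetone, 187 l/ha track spray, 15–1000 g ai/ha. 0–100 injury score, day 14.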

[13] = system: green foxtail (Setaria viridis, SETVI); assay: as above; conditions: post-emerge, 14 days after application, rating scale 0-100
Method in brief: as §3

[14] = system: lambsquarters (Chenopodium album, CHEAL); assay: as above; conditions: post-emerge, 14 days after application, rating scale 0-100
Method in brief: as §3

[15] = system: sicklepod (Cassia obtusifolia, CASOB); assay: as above; conditions: post-emerge, 14 days after application, rating scale 0-100
Method in brief: as §3

[16] = system: johnsongrass (Sorghum halepense, SORHA); assay: as above; conditions: post-emerge, 14 days after application, rating scale 0-100
Method in brief: as §3

[17] = system: large crabgrass (Digitaria sanguinalis, DIGSA); assay: as above; conditions: post-emerge, 14 days after application, rating scale 0-100
Method in brief: as §3

[18] = system: redroot pigweed (Amaranthus retroflexus, AMARE); assay: as above; conditions: post-emerge, 14 days after application, rating scale 0-100
Method in brief: as §3

[19] = system: barnyardgrass (Echinochloa crus-galli, ECHCG); assay: as above; conditions: post-emerge, 14 days after application, rating scale 0-100
Method in brief: as §3

[20] = system: velvetleaf (Abutilon theophrasti, ABUTH); assay: as above; conditions: post-emerge, 14 days after application, rating scale 0-100
Method in brief: as §3

[21] = system: upland rice (Oryza sp., var. Tebonnet, RICE); assay: Post-emerge test, crop safety; conditions: post-emerge, 14 days after application, rating scale 0-100
Method in brief: (§4)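 Each test used a mechanized track sprayer delivering 187 l/ha of acetone solution at 15–1000 g ai/ha. Post-emerge foliage at 2–3 leaves was treated with added 0.25% v/v non-ionic surfactant and bottom-watered only. Injury was assessed on day 14, where 100 means total kill.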

[22] = system: field corn (Zea mays L., var. Dekalb 535, CORN); assay: Post-emerge test, crop safety; conditions: post-emerge, 14 days after application, rating scale 0-100
Method in brief: as §4

SMILES: COc1c(Cl)cc(F)c(-n2c(=O)cc(C(F)(F)F)n(C)c2=O)c1N(C(=O)COc1ccccc1)C(=O)COc1ccccc1 [2-120]
- Pre-emerge Herbicidal Activity, phytotoxicity rating (0-100), AMARE ([1]; 63 g ai/ha): 90
- Pre-emerge Herbicidal Activity, phytotoxicity rating (0-100), AMARE ([1]; 250 g ai/ha): 100
- Pre-emerge phytotoxicity rating (0-100), crop damage, RICE ([2]; 63 g ai/ha): 80
- Pre-emerge phytotoxicity rating (0-100), crop damage, RICE ([2]; 250 g ai/ha): 95
- Pre-emerge phytotoxicity rating (0-100), crop damage, CORN ([3]; 63 g ai/ha): 0
- Pre-emerge phytotoxicity rating (0-100), crop damage, CORN ([3]; 250 g ai/ha): 90
- Pre-emerge Herbicidal Activity, phytotoxicity rating (0-100), IPOHE ([4]; 63 g ai/ha): 50
- Pre-emerge Herbicidal Activity, phytotoxicity rating (0-100), IPOHE ([4]; 250 g ai/ha): 80
- Pre-emerge Herbicidal Activity, phytotoxicity rating (0-100), SETVI ([5]; 63 g ai/ha): 70
- Pre-emerge Herbicidal Activity, phytotoxicity rating (0-100), SETVI ([5]; 250 g ai/ha): 100
- Pre-emerge Herbicidal Activity, phytotoxicity rating (0-100), CHEAL ([6]; 63 g ai/ha): 100
- Pre-emerge Herbicidal Activity, phytotoxicity rating (0-100), CHEAL ([6]; 250 g ai/ha): 100
- Pre-emerge Herbicidal Activity, phytotoxicity rating (0-100), CASOB ([7]; 63 g ai/ha): 40
- Pre-emerge Herbicidal Activity, phytotoxicity rating (0-100), CASOB ([7]; 250 g ai/ha): 70
- Pre-emerge Herbicidal Activity, phytotoxicity rating (0-100), SORHA ([8]; 63 g ai/ha): 50
- Pre-emerge Herbicidal Activity, phytotoxicity rating (0-100), SORHA ([8]; 250 g ai/ha): 95
- Pre-emerge Herbicidal Activity, phytotoxicity rating (0-100), DIGSA ([9]; 63 g ai/ha): 80
- Pre-emerge Herbicidal Activity, phytotoxicity rating (0-100), DIGSA ([9]; 250 g ai/ha): 100
- Pre-emerge Herbicidal Activity, phytotoxicity rating (0-100), ECHCG ([10]; 63 g ai/ha): 60
- Pre-emerge Herbicidal Activity, phytotoxicity rating (0-100), ECHCG ([10]; 250 g ai/ha): 90
- Pre-emerge Herbicidal Activity, phytotoxicity rating (0-100), ABUTH ([11]; 63 g ai/ha): 100
- Pre-emerge Herbicidal Activity, phytotoxicity rating (0-100), ABUTH ([11]; 250 g ai/ha): 100
- phytotoxicity rating IPOHE ([12]; 63 g ai/ha): 100
- phytotoxicity rating IPOHE ([12]; 250 g ai/ha): 100
- phytotoxicity rating SETVI ([13]; 63 g ai/ha): 20
- phytotoxicity rating SETVI ([13]; 250 g ai/ha): 60
- phytotoxicity rating CHEAL ([14]; 63 g ai/ha): 80
- phytotoxicity rating CHEAL ([14]; 250 g ai/ha): 80
- phytotoxicity rating CASOB ([15]; 63 g ai/ha): 40
- phytotoxicity rating CASOB ([15]; 250 g ai/ha): 30
- phytotoxicity rating SORHA ([16]; 63 g ai/ha): 40
- phytotoxicity rating SORHA ([16]; 250 g ai/ha): 50
- phytotoxicity rating DIGSA ([17]; 63 g ai/ha): 10
- phytotoxicity rating DIGSA ([17]; 250 g ai/ha): 60
- phytotoxicity rating AMARE ([18]; 63 g ai/ha): 90
- phytotoxicity rating AMARE ([18]; 250 g ai/ha): 100
- phytotoxicity rating ECHCG ([19]; 63 g ai/ha): 40
- phytotoxicity rating ECHCG ([19]; 250 g ai/ha): 30
- phytotoxicity rating ABUTH ([20]; 63 g ai/ha): 100
- phytotoxicity rating ABUTH ([20]; 250 g ai/ha): 100
- phytotoxicity rating RICE ([21]; 63 g ai/ha): 50
- phytotoxicity rating RICE ([21]; 250 g ai/ha): 90
- phytotoxicity rating CORN ([22]; 63 g ai/ha): 50
- phytotoxicity rating CORN ([22]; 250 g ai/ha): 70

SMILES: Cn1c(C(F)(F)F)cc(=O)n(-c2c(F)cc(Cl)c(OCC#N)c2N(C(=O)c2ccc(F)cc2F)C(=O)c2ccc(F)cc2F)c1=O [2-45]
- Pre-emerge Herbicidal Activity, phytotoxicity rating (0-100), AMARE ([1]; 63 g ai/ha): 70
- Pre-emerge Herbicidal Activity, phytotoxicity rating (0-100), AMARE ([1]; 250 g ai/ha): 100
- Pre-emerge phytotoxicity rating (0-100), crop damage, RICE ([2]; 63 g ai/ha): 0
- Pre-emerge phytotoxicity rating (0-100), crop damage, RICE ([2]; 250 g ai/ha): 0
- Pre-emerge phytotoxicity rating (0-100), crop damage, CORN ([3]; 63 g ai/ha): 0
- Pre-emerge phytotoxicity rating (0-100), crop damage, CORN ([3]; 250 g ai/ha): 0
- Pre-emerge Herbicidal Activity, phytotoxicity rating (0-100), IPOHE ([4]; 63 g ai/ha): 0
- Pre-emerge Herbicidal Activity, phytotoxicity rating (0-100), IPOHE ([4]; 250 g ai/ha): 0
- Pre-emerge Herbicidal Activity, phytotoxicity rating (0-100), SETVI ([5]; 63 g ai/ha): 0
- Pre-emerge Herbicidal Activity, phytotoxicity rating (0-100), SETVI ([5]; 250 g ai/ha): 30
- Pre-emerge Herbicidal Activity, phytotoxicity rating (0-100), CHEAL ([6]; 63 g ai/ha): 60
- Pre-emerge Herbicidal Activity, phytotoxicity rating (0-100), CHEAL ([6]; 250 g ai/ha): 90
- Pre-emerge Herbicidal Activity, phytotoxicity rating (0-100), CASOB ([7]; 63 g ai/ha): 0
- Pre-emerge Herbicidal Activity, phytotoxicity rating (0-100), CASOB ([7]; 250 g ai/ha): 0
- Pre-emerge Herbicidal Activity, phytotoxicity rating (0-100), SORHA ([8]; 63 g ai/ha): 0
- Pre-emerge Herbicidal Activity, phytotoxicity rating (0-100), SORHA ([8]; 250 g ai/ha): 0
- Pre-emerge Herbicidal Activity, phytotoxicity rating (0-100), DIGSA ([9]; 63 g ai/ha): 0
- Pre-emerge Herbicidal Activity, phytotoxicity rating (0-100), DIGSA ([9]; 250 g ai/ha): 0
- Pre-emerge Herbicidal Activity, phytotoxicity rating (0-100), ECHCG ([10]; 63 g ai/ha): 00
- Pre-emerge Herbicidal Activity, phytotoxicity rating (0-100), ECHCG ([10]; 250 g ai/ha): 0
- Pre-emerge Herbicidal Activity, phytotoxicity rating (0-100), ABUTH ([11]; 63 g ai/ha): 0
- Pre-emerge Herbicidal Activity, phytotoxicity rating (0-100), ABUTH ([11]; 250 g ai/ha): 70
- phytotoxicity rating IPOHE ([12]; 63 g ai/ha): 20
- phytotoxicity rating IPOHE ([12]; 250 g ai/ha): 30
- phytotoxicity rating SETVI ([13]; 63 g ai/ha): 0
- phytotoxicity rating SETVI ([13]; 250 g ai/ha): 40
- phytotoxicity rating CHEAL ([14]; 63 g ai/ha): 30
- phytotoxicity rating CHEAL ([14]; 250 g ai/ha): 30
- phytotoxicity rating CASOB ([15]; 63 g ai/ha): 0
- phytotoxicity rating CASOB ([15]; 250 g ai/ha): 20
- phytotoxicity rating SORHA ([16]; 63 g ai/ha): 0
- phytotoxicity rating SORHA ([16]; 250 g ai/ha): 0
- phytotoxicity rating DIGSA ([17]; 63 g ai/ha): 0
- phytotoxicity rating DIGSA ([17]; 250 g ai/ha): 0
- phytotoxicity rating AMARE ([18]; 63 g ai/ha): 10
- phytotoxicity rating AMARE ([18]; 250 g ai/ha): 20
- phytotoxicity rating ECHCG ([19]; 63 g ai/ha): 0
- phytotoxicity rating ECHCG ([19]; 250 g ai/ha): 0
- phytotoxicity rating ABUTH ([20]; 63 g ai/ha): 30
- phytotoxicity rating ABUTH ([20]; 250 g ai/ha): 40
- phytotoxicity rating RICE ([21]; 63 g ai/ha): 0
- phytotoxicity rating RICE ([21]; 250 g ai/ha): 10
- phytotoxicity rating CORN ([22]; 63 g ai/ha): 0
- phytotoxicity rating CORN ([22]; 250 g ai/ha): 5
